According to US20230218654A1, “COMPOSITIONS AND METHODS FOR TREATING HYPERGLYCEMIA IN TYPE-2 DIABETES” (The Board of Regents of the university of Oklahoma, priority 2020, published 2023):
Entries after “also recorded” stand apart in the source; their conditions may differ.

What was measured:
[1] = tested on: male mice fed WD for 6 weeks; assay: Insulin tolerance test (ITT); type: in vivo; settings: WD 6 weeks, 60 mg/kg SQ twice
Experimental: Male C7BL/6J mice were first fed WD for 6 weeks, and then treated with 60 mg/kg MLN6924 via subcutaneous (SQ) injection at 5 pm on day 1 and 9 am on day 2. Mice were fasted from 9 am to 3 pm on day 2 and insulin tolerance test was performed with 0.5 U/kg insulin i.p. injection (n=5). All results are expressed as mean ± SEM. “*”, p<0.05, vs. Vehicle group at the same time point. Unpaired Student’s t-test was used to calculate the p value.
(§1) Mice were treated with 2 doses of MLN4924 as described. After the second injection at 9 am, mice were fasted for 6 h from 9 am to 3 pm. Mice were injected intraperitoneally […] for PTT, and 0.5 U/kg insulin for ITT. Blood glucose was measured with a OneTouch Ultra glucose meter.

[2] = tested on: male C57BL/6J mice fed Chow or Western diet; assay: MLN4924 intervention for 9 weeks in 16-week WD-fed mice (Experimental II); type: in vivo
Experimental: Chronic MLN4924 treatment attenuates hepatic steatosis in Western diet-fed mice. Male C57BL/6J mice were fed Chow (C) or Western diet (WD) for 16 weeks. MLN4924 treatment (60 mg/kg, SQ, every other day) was initiated after mice were fed WD for 7 weeks as indicated. Control mice were injected with vehicle. After 16 weeks of feeding, mice were fasted from 9 am to 3 pm and euthanized. Scale bar = 125 µm. […]
WT male C57BL/6J mice were purchased from the Jackson Lab (Bar Harbor, ME). Western diet (TD. 88137, Envigo Inc. Indianapolis, IN) contains 42% fat calories and 0.2% cholesterol. Mice were housed in micro-isolator cages with corn cob bedding under 7 am - 7 pm light cycle and 7 pm -7 am dark cycle. MLN4924 was prepared in 10% 2-hydroxypropyl-b-cyclodextrin to a final concentration of 3 mg/ml. All mice were fasted for 6 h from 9 am to 3 pm before euthanasia. All animals received humane care according to the criteria outlined in the “Guide for the Care and Use of Laboratory Animals.” All animal protocols were approved by the Institutional Animal Care and Use Committee at the University of Kansas Medical Center and the University of Oklahoma Health Sciences Center. […]
(§2) Human normal livers (less than 5% steatosis) and histologically confirmed NASH livers were obtained from either the University of Kansas Liver Center or the Liver Tissue Cell Distribution System (LTCDS) at the University of Minnesota. Human and mouse tissue samples were homogenized in 1XRIPA buffer containing 1% SDS and protease inhibitors. After incubation on ice for 1 hour, the samples were centrifugation and supernatant was transferred to a new tube. The protein lysate was mixed with equal volume of 2X laemmli buffer and incubated at 95° C. for 5 minutes and used for SDS-PAGE and immunoblotting. ImageJ software (NIH) was used to determine band intensity.
Total liver RNA was purified with Trizol (Sigma-Aldrich, St. Louis, MO). Total liver RNA was used in reverse transcription with Oligo dT primer and SuperScript III reverse transcriptase (Thermo Fisher Scientific, Grand Island, NY). Real-time PCR was performed on a Bio-Rad CFX384 Real-time PCR system with iQ SYBR Green Supermix (Bio-rad, Hercules, CA). The comparative CT (Ct) method was used to calculate the relative mRNA expression. The relative mRNA expression was expressed as 2 ^-ΔΔCt with the control group arbitrarily set as “1”. […]

[3] = tested on: male C57BL/6J mice; assay: Glucose tolerance test (GTT); type: in vivo; settings: 60 mg/kg SQ twice; for glucose tolerance in GTT: 6 h fast
Experimental: On the day of testing, mice were fasted for 6 h (from 9 am to 3 pm). Mice were then given 2 g/kg D-glucose via IP injection. Blood glucose was measured with an UltraTouch glucometer in time course over a 120-minute period.
as §1

[4] = tested on: male C57BL6/J mice; assay: Plasma/serum insulin and c-peptide after acute neddylation inhibitor treatment; type: in vivo
Experimental: Male C57BL6/J mice on chow diet were treated with 45 mg/kg TAS4464 via subcutaneous injection at 9 am. Mice were then fasted for 6 hours and serum insulin was measured. Blood samples were collected at 0 min and 120 min and used for insulin measurement (n=4). Left-hand bars are controls. Right-hand bars are TAS4464 treatments.
Male C57BL6/J mice on Western diet were treated with 15 mg/kg TAS4464 via subcutaneous injection at 9 am. Mice were then fasted for 6 hours and serum c-peptide were measured (n=5).
Male C57BL6/J mice on chow diet were treated with 60 mg/kg MLN4924 via subcutaneous injection at 9 am. Mice were then fasted for 6 hours and serum c-peptide were measured (n=8)
Aspartate aminotransferase (AST) and alanine aminotransferase (ALT) assay kits were purchased from Pointe Scientific (Canton, MI). Free fatty acid assay kit was purchased from Biovision Inc. (Milpitas, CA). Insulin ELISA kit was purchased from Crystal Chem Inc. (Elk Grove Village, IL).
A hyperinsulinemic-euglycemic clamp study was conducted in which obese mice were treated with vehicle or MLN4924.

[5] = tested on: skeletal muscle cullin neddylation and AKT phosphorylation; assay: Western blot of gastrocnemius (skeletal) muscle after acute MLN4924; type: in vivo, mice; settings: chow diet; 60 mg/kg SQ twice
Experimental: Male C57BL/6J mice on chow diet were treated with 60 mg/kg MLN6924 via subcutaneous (SQ) injection at 5 pm on day 1 and 9 am on day 2. Mice were fasted from 9 am to 3 pm on day 2 and sacrificed. Effect of MLN4924 on gastrocnemius muscle cullin neddylation and AKT phosphorylation was measured by Western blotting.
as §2
To further explore the hepatic insulin sensitizing effect of neddylation inhibition in vivo, we administered MLN4924 to chow-fed mice twice via subcutaneous (SQ) injection (5 pm on day 1 and 9 am on day 2) and studied the acute effect of MLN4924. The dose of 60 mg/kg is in line with published literature. […] In addition to liver, skeletal muscle is another organ that quantitatively contribute to plasma glucose homeostasis.

[6] = tested on: male C57BL/6J mice; assay: Pyruvate tolerance test (PTT); type: in vivo; settings: 60 mg/kg SQ twice; for blood glucose excursion / hepatic glucose production in PTT: 6 h fast, 60 mg/kg
Experimental: On the day of testing, mice were fasted for 6 h (from 9am to 3 pm). Mice were then given 2 g/kg sodium pyruvate via IP injection. Blood glucose was measured with an UltraTouch glucometer in time course over a 120-minute period.
as §1

[7] = chronic MLN4924, 60 mg/kg SQ once every 2 days

NS(=O)(=O)OC[C@@H]1C[C@@H](n2ccc3c(N[C@H]4CCc5ccccc54)ncnc32)C[C@@H]1O [MLN4924, ((1S,2S,4R)-4-(4-((1S)-2,3-dihydro-1H-inden-1-ylamino)-7H-pyrrolo[2,3-d]pyrimidin-7-yl)-2-hydroxycyclopentyl) methyl sulfamate]
plasma glucose in response to insulin after 1 h ([1]; 0.5 U/kg insulin i.p., similar in vehicle group): ~ 25 mg/dL | basal glucose ([1]; 6 h fast): lower basal glucose | ALT ([2]; WD-fed mice): significantly reduced ALT | hepatic fat accumulation ([2]; WD-fed mice): significant reduction of hepatic fat accumulation | plasma insulin levels ([2]; WD-fed mice): not reduced | blood glucose ([2]; WD-fed mice, intervention for 9 weeks): completely normalized blood glucose | liver histology ([2]; chow-fed MLN4924-treated mice): appeared normal | plasma insulin ([2]; chow-fed mice): did not affect plasma insulin | alanine aminotransferase (ALT) elevation ([2]; chow-fed mice, 9 weeks): did not cause alanine aminotransferase (ALT) elevation | hypoglycemia ([2]; chow-fed mice, intervention for 9 weeks): without causing undesirable hypoglycemia | hepatic glucose 6-phosphatase (G6Pase) gene ([2]; chronic MLN4924): decreased hepatic gluconeogenic gene glucose 6-phosphatase (G6Pase) | liver pyruvate kinase (L-PK) gene ([2]; chronic MLN4924): downregulation of liver pyruvate kinase (L-PK) | hepatic IRS protein [2, 7]: increased IRS protein | hepatic cullin neddylation [2, 7]: decreased hepatic cullin neddylation | hepatic downstream AKT activation [2, 7]: increased IRS protein and downstream AKT activation | tolerability / hepatotoxicity ([2]; chronic MLN4924, 9 weeks): well tolerated and did not cause hepatotoxicity | peak blood glucose at 30 minutes post glucose challenge ([3]; vs vehicle): significantly lower | glucose tolerance in GTT ([3]; 3-week WD-fed mice): significantly improved glucose tolerance | basal glucose levels after 6 h fasting ([3]; chow condition): did not significantly decrease basal glucose levels | glucose tolerance in GTT ([3]; chow-fed mice, 60 mg/kg): significantly improved glucose tolerance; also recorded: improved overall glucose tolerance | plasma insulin ([4]; acute MLN4924 treatment): ~ 0.55 ng/ml | serum c-peptide ([4]; acute MLN4924 treatment): ~ 1.1 ng/ml | serum c-peptide concentration ([4]; chow diet, 60 mg/kg SQ at 9 am, 6 h fast): elevated serum c-peptide concentration | increase of AKT phosphorylation in skeletal muscle [5]: did not | increase of IRS protein abundance in skeletal muscle [5]: did not | inhibition of cullin neddylation in skeletal muscle [5]: did not inhibit cullin neddylation | peak blood glucose at 30 minutes post pyruvate challenge ([6]; vs vehicle): significantly lower | blood glucose excursion / hepatic glucose production in PTT ([6]; 4-week WD-fed mice): significantly lower | blood glucose excursion / hepatic glucose production in PTT ([6]; 4-week chow-fed mice): significantly lower; also recorded: significantly reduced hepatic glucose production
